Measurements taken from patent US20180321224A1, “COMPOSITIONS AND METHODS FOR INCREASING HEPATOCYTE FUNCTIONAL LIFETIME IN VITRO” (Colorado State University Research Foundation, priority 2015, published 2018).
Read-outs that look alike come from different tables or passages of the source.

Tests used:
[1] = tested on: primary human hepatocytes in micropatterned co-cultures (MPCCs); experiment: Hepatotoxicity screening in MPCCs pre-cultured in physiologic medium (urea synthesis); conditions: for Calculated TC50 (interpolated concentration where urea synthesis drops below 50% of the vehicle control): MPCCs in physiologic medium for 10 days, treated 2 times over 5 days in serum free medium, vehicle DMSO
Procedure: Therefore, a drug screen with cultures after they were subjected to physiologic medium for 10 days was carried out (FIG. 5). […] Drug treatments were carried out in serum free medium to prevent potential drug-protein interactions.
Urea synthesis and glucose production was quantified using previously described methods. Since human serum contains significant amounts of […], an alternative protocol to quantify MPCC albumin production was used. Specifically, after 2 and 3 weeks of culture, cultures were washed 3 times with 1×PBS, and then incubated for 24 hours in serum free medium. Albumin was then measured in this medium using a sandwich ELISA method. To account for potential residual albumin in cell culture medium, any differences in albumin production between cultures incubated in 5%, 7.5% and 10% serum were examined. […] Enzyme activity was assessed using the methods previously described.
Drug toxicity and enzyme induction were assessed as previously described.

[2] = average maximal drug concentration observed in patients after administering the drug; cited from earlier work
[3] = after 2 treatments over 5 days at 25*Cmax and 100*Cmax, serum free medium, MPCCs pre-cultured in physiologic medium 10 days

Compound | Toxicity categorization by urea synthesis in MPCC supernatants (toxic if below 50% of vehicle control) [1] | Cmax [2] [µM] | Calculated TC50 (interpolated concentration where urea synthesis drops below 50% of the vehicle control) [1] [mM] | Toxicity categorization by urea synthesis in MPCC supernatants (toxic if below 50% of vehicle control) [1, 3]
CC(=O)Oc1ccccc1C(=O)O [aspirin] | no significant loss in urea synthesis |  |  | 
C[C@@H]1C[C@H]2[C@@H]3CCC4=CC(=O)C=C[C@]4(C)[C@@]3(F)[C@@H](O)C[C@]2(C)[C@@]1(O)C(=O)CO [dexamethasone] | no significant loss in urea synthesis |  |  | 
Clc1ccc(COC(Cn2ccnc2)c2ccc(Cl)cc2Cl)c(Cl)c1 (stereo not shown) [miconazole] | no significant loss in urea synthesis |  |  | 
C[C@]12C=CC(=O)C=C1CC[C@@H]1[C@@H]2C(=O)C[C@@]2(C)[C@H]1CC[C@]2(O)C(=O)CO [prednisone] | no significant loss in urea synthesis |  |  | 
piroxicam |  | 5.13 | 2.901 | toxic
troglitazone |  | 6.39 | 1.555 | toxic
